# Experimental data: US4257941A, “Polycyclic nitrogen-containing compounds” (BASF Aktiengesellschaft, priority 1976, dated 1981)
# What was measured:
# [1] = system: oats; test: Growth height of oats, greenhouse (Example 10); type: in vivo, oats (Flamingskrone); conditions: for Plant height relative: control 100
# Description: (§1) In the greenhouse, the four cereals wheat ("Opal" variety), rye ("Petkuser"), barley ("Villa") and oats ("Flamingskrone") were sown in plastic dishes 11.5 cm in diameter in a sandy loam adequately supplied with nutrients. The active ingredients were applied at various rates to the soil and to the leaves. When applied to the soil, the active ingredient were sprayed onto the surface of the soil on the day of sowing; in the case of leaf treatment, the leaves were sprayed in the usual manner at a growth height of the plants of 10 cm. During the 18 day growth period, the treated plants grew much more slowly than the untreated control, a fact later confirmed by measurements of the stem length. Measurements were taken of 100 plants from each series.
# (§2) The prior art agent used for comparison purposes was N-2-chloroethyl-N,N,N-trimethylammonium chloride (CCC; German Printed Application DAS No. 1,294,734).
# [2] = system: spring barley; test: Stem length, lateral shoots and yield in spring barley (Example 12); type: in vivo; conditions: 3 kg/ha
# Procedure: To examine the effect of the various substances on spring barley up to the maturity stage of the plants, an experiment was carried out in large pots. The plants were grown in quartz sand (fertilized with 2 g N as ammonium nitrate in 3 doses, 1 g P2 O5 as secondary sodium phosphate, 1.5 g K2 O as potassium sulfate, 0.5 g MgO as magnesium sulfate, 10 ml of a solution of trace elements, and 10 mg of iron as an iron complex). […] The treated plants were up to 10% shorter than the control, and yields were also slightly up.
# [3] = system: barley; test: Growth height of barley, greenhouse (Example 9); type: in vivo, barley (Villa); conditions: for Plant height relative: control 100
# Description: as §1, §2
# [4] = system: cotton; test: Induction of flowering and growth height of cotton, hydroponic (Example 18); type: in vivo; conditions: for Shoot length: 4 weeks; for No. of squares per vessel (3 plants): control 0, average of 3 vessels; for Shoot length rel.: control 100
# Procedure: Cotton plants were subjected to hydroponic treatment under the same conditions as in Example 16. The active ingredients were added (1.25 mg/vessel=0.3 ppm and 5 mg/vessel=1.25 ppm) at a height of the plant of 15 to 18 cm. […] The results below are averages from 3 vessels, each of 3 plants.
# [5] = system: Triticum aestivum; test: Growth height of young cereal plants (Example 11, Table A); type: in vivo
# Description: (§3) The vessels used for the experiments were plastic pots having a volume of 1,130 cm^3 (Table A) or paraffined paper cups having a volume of 170 cm^3 (Table B). The pots and cups were filled with a sandy loam. The seeds of the test plants-separated by species-were sown shallow. Preemergence treatment (soil treatment) was effected immediately after sowing and before germination of the seeds. Seeds lying on the surface came into contact with the active ingredients. Postemergence treatment (leaf treatment) took place at an average growth height of the plants (depending on the rate of growth) of from 6 to 10 cm. The substances were suspended, emulsified or dissolved in water as diluent and applied by means of fine nozzles. The vessels were kept in the greenhouse in a temperature range of 12° C. to 25° C., and were regularly sprinkler irrigated for the duration of the experiment. The observation period was 6 to 8 weeks.
# [6] = system: Hordeum vulgare; test: as above; type: in vivo; conditions: soil treatment
# Description: as §3
# [7] = system: wheat; test: Growth height of wheat, greenhouse (Example 7); type: in vivo, wheat (Opal variety); conditions: for Plant height relative: control 100
# Description: as §1, §2
# [8] = system: rice; test: Action on rice (Example 23); type: in vivo; conditions: leaf; for Plant height: 66 days; for Plant height relative: control 100
# Procedure: At a growth height of 11 to 13 cm the active ingredients were sprayed onto the leaves in the usual manner. The plants were measured after 66 days.
# [9] = system: sunflowers; test: Action on sunflowers (Example 24); type: in vivo; conditions: for Plant height relative: control 100
# Description: The active ingredients were applied both to the soil and to the leaves.
# [10] = system: rye; test: Growth height of rye, greenhouse (Example 8); type: in vivo, rye (Petkuser); conditions: for Plant height relative: control 100
# Description: as §1, §2
# [11] = system: Euphorbia geniculata; test: Growth-regulating action, preemergence, greenhouse (Example 35, Table 2); type: in vivo; conditions: for growth height relative: control 100
# Description: as §3
# Further experiments were carried out in the greenhouse under the condition described in Example 11. […] As the plants which were examined liked the warmth (Eupghorbia geniculate, Arachis hypogaea, Cynodon dactylon), they were kept at from 20°-30° C. Cynodon dactylon from seed was cut once and the young growth treated postemergence.
smiles,measurement,setting,value
"C[N+](C)(C)CCCl.[Cl-] [CCC, N-2-chloroethyl-N,N,N-trimethylammonium chloride, reference compound]",Plant height,"[1]; leaf, 0.125 kg/ha",28.0 cm
same,Plant height relative,"[1]; leaf, 0.125 kg/ha",100
same,Plant height,"[1]; leaf, 0.5 kg/ha",28.5 cm
same,Plant height relative,"[1]; leaf, 0.5 kg/ha",101.8
same,Plant height,"[1]; leaf, 1.0 kg/ha",28.0 cm
same,Plant height relative,"[1]; leaf, 1.0 kg/ha",100
same,Plant height,"[1]; leaf, 2.0 kg/ha",27.0 cm
same,Plant height relative,"[1]; leaf, 2.0 kg/ha",96.4
same,Plant height,"[1]; leaf, 4.0 kg/ha",25.5 cm
same,Plant height relative,"[1]; leaf, 4.0 kg/ha",91.1
same,Plant height,"[1]; soil, 0.5 kg/ha",28.0 cm
same,Plant height relative,"[1]; soil, 0.5 kg/ha",100
same,Plant height,"[1]; soil, 1.0 kg/ha",28.0 cm
same,Plant height relative,"[1]; soil, 1.0 kg/ha",100
same,Plant height,"[1]; soil, 2.0 kg/ha",27.0 cm
same,Plant height relative,"[1]; soil, 2.0 kg/ha",96.4
same,Plant height,"[1]; soil, 6.0 kg/ha",26.0 cm
same,Plant height relative,"[1]; soil, 6.0 kg/ha",92.9
same,Ear weight,[2],95.0 g
same,No. of lateral shoots,[2],99
same,Stem length,[2],74.2 cm
same,Ear weight relative,[2]; control 100,105.1
same,No. of lateral shoots relative,[2]; control 100,106.5
same,Stem length relative,[2]; control 100,96.5
same,Plant height,"[3]; leaf, 0.125 kg/ha",29.0 cm
same,Plant height relative,"[3]; leaf, 0.125 kg/ha",96.7
same,Plant height,"[3]; leaf, 0.5 kg/ha",28.5 cm
same,Plant height relative,"[3]; leaf, 0.5 kg/ha",95.0
same,Plant height,"[3]; leaf, 1.0 kg/ha",26.5 cm
same,Plant height relative,"[3]; leaf, 1.0 kg/ha",88.3
same,Plant height,"[3]; leaf, 2.0 kg/ha",27.0 cm
same,Plant height relative,"[3]; leaf, 2.0 kg/ha",90.0
same,Plant height,"[3]; leaf, 4.0 kg/ha",27.0 cm
same,Plant height relative,"[3]; leaf, 4.0 kg/ha",90.0
same,Plant height,"[3]; soil, 0.5 kg/ha",28.0 cm
same,Plant height relative,"[3]; soil, 0.5 kg/ha",88.9
same,Plant height,"[3]; soil, 1.0 kg/ha",27.0 cm
same,Plant height relative,"[3]; soil, 1.0 kg/ha",85.7
same,Plant height,"[3]; soil, 2.0 kg/ha",26.0 cm
same,Plant height relative,"[3]; soil, 2.0 kg/ha",82.5
same,Plant height,"[3]; soil, 6.0 kg/ha",25.0 cm
same,Plant height relative,"[3]; soil, 6.0 kg/ha",79.4
same,Shoot length,[4]; 0.3 ppm,36.2 cm
same,No. of squares per vessel (3 plants),[4]; 0.3 ppm,0
same,Shoot length rel.,[4]; 0.3 ppm,76.7
same,Shoot length,[4]; 1.25 ppm,34.8 cm
same,No. of squares per vessel (3 plants),[4]; 1.25 ppm,0
same,Shoot length rel.,[4]; 1.25 ppm,73.8
same,buds / squares,[4]; 4 week growth period,withered in the nascent stage and dropped off
same,Growth height,"[5]; leaf treatment, 0.5 kg/ha",40 cm
same,Growth height,"[5]; leaf treatment, 1.0 kg/ha",40 cm
same,Growth height,"[5]; leaf treatment, 2.0 kg/ha",40 cm
same,Growth height,"[5]; soil treatment, 0.5 kg/ha",40 cm
same,Growth height,"[5]; soil treatment, 1.0 kg/ha",40 cm
same,Growth height,"[5]; soil treatment, 2.0 kg/ha",33 cm
same,Growth height,[6]; 0.5 kg/ha,36 cm
same,Growth height,[6]; 1.0 kg/ha,31 cm
same,Growth height,[6]; 2.0 kg/ha,33 cm
same,Plant height,"[7]; leaf, 0.125 kg/ha",28.0 cm
same,Plant height relative,"[7]; leaf, 0.125 kg/ha",93.3
same,Plant height,"[7]; leaf, 0.5 kg/ha",26.0 cm
same,Plant height relative,"[7]; leaf, 0.5 kg/ha",86.7
same,Plant height,"[7]; leaf, 1.0 kg/ha",26.0 cm
same,Plant height relative,"[7]; leaf, 1.0 kg/ha",86.7
same,Plant height,"[7]; leaf, 2.0 kg/ha",23.0 cm
same,Plant height relative,"[7]; leaf, 2.0 kg/ha",76.7
same,Plant height,"[7]; leaf, 4.0 kg/ha",23.0 cm
same,Plant height relative,"[7]; leaf, 4.0 kg/ha",76.7
same,Plant height,"[7]; soil, 0.5 kg/ha",26.0 cm
same,Plant height relative,"[7]; soil, 0.5 kg/ha",83.9
same,Plant height,"[7]; soil, 1.0 kg/ha",24.5 cm
same,Plant height relative,"[7]; soil, 1.0 kg/ha",79.0
same,Plant height,"[7]; soil, 2.0 kg/ha",22.5 cm
same,Plant height relative,"[7]; soil, 2.0 kg/ha",72.6
same,Plant height,"[7]; soil, 6.0 kg/ha",22.0 cm
same,Plant height relative,"[7]; soil, 6.0 kg/ha",71.0
same,Plant height,[8]; 1.0 kg/ha,38.0 cm
same,Plant height relative,[8]; 1.0 kg/ha,93.6
same,Plant height,[8]; 2.0 kg/ha,40.5 cm
same,Plant height relative,[8]; 2.0 kg/ha,99.8
same,Plant height,[8]; 4.0 kg/ha,38.5 cm
same,Plant height relative,[8]; 4.0 kg/ha,94.8
same,Plant height,[8]; 6.0 kg/ha,40.0 cm
same,Plant height relative,[8]; 6.0 kg/ha,98.5
same,Plant height,"[9]; leaf, 1.5 kg/ha",38.0 cm
same,Plant height relative,"[9]; leaf, 1.5 kg/ha",99
same,Plant height,"[9]; leaf, 6.0 kg/ha",32.5 cm
same,Plant height relative,"[9]; leaf, 6.0 kg/ha",85
same,Plant height,"[9]; soil, 3.0 kg/ha",40.0 cm
same,Plant height relative,"[9]; soil, 3.0 kg/ha",110
same,Plant height,"[9]; soil, 12.0 kg/ha",36.0 cm
same,Plant height relative,"[9]; soil, 12.0 kg/ha",99
same,Plant height,"[10]; leaf, 0.125 kg/ha",29.0 cm
same,Plant height relative,"[10]; leaf, 0.125 kg/ha",98.3
same,Plant height,"[10]; leaf, 0.5 kg/ha",28.0 cm
same,Plant height relative,"[10]; leaf, 0.5 kg/ha",94.9
same,Plant height,"[10]; leaf, 1.0 kg/ha",27.5 cm
same,Plant height relative,"[10]; leaf, 1.0 kg/ha",93.2
same,Plant height,"[10]; leaf, 2.0 kg/ha",27.5 cm
same,Plant height relative,"[10]; leaf, 2.0 kg/ha",93.2
same,Plant height,"[10]; leaf, 4.0 kg/ha",29.0 cm
same,Plant height relative,"[10]; leaf, 4.0 kg/ha",98.3
same,Plant height,"[10]; soil, 0.5 kg/ha",28.0 cm
same,Plant height relative,"[10]; soil, 0.5 kg/ha",96.6
same,Plant height,"[10]; soil, 1.0 kg/ha",27.5 cm
same,Plant height relative,"[10]; soil, 1.0 kg/ha",94.8
same,Plant height,"[10]; soil, 2.0 kg/ha",28.0 cm
same,Plant height relative,"[10]; soil, 2.0 kg/ha",96.6
same,Plant height,"[10]; soil, 6.0 kg/ha",26.5 cm
same,Plant height relative,"[10]; soil, 6.0 kg/ha",91.4
FC(F)(F)c1cccc(N2C3C4CC(C5N=NC45)C32)c1 (centres unmarked) [drawing 438],Growth height,[11]; 0.25 kg/ha,6 cm
same,growth height relative,[11]; 0.25 kg/ha,54
same,Growth height,[11]; 0.5 kg/ha,5 cm
same,growth height relative,[11]; 0.5 kg/ha,45
same,Growth height,[11]; 1.0 kg/ha,3 cm
same,growth height relative,[11]; 1.0 kg/ha,27
CN(C)NC(=O)CCC(=O)O [drawing 439],Growth height,[11]; 0.25 kg/ha,12 cm
same,growth height relative,[11]; 0.25 kg/ha,109
same,Growth height,[11]; 0.5 kg/ha,12 cm
same,growth height relative,[11]; 0.5 kg/ha,109
same,Growth height,[11]; 1.0 kg/ha,10 cm
same,growth height relative,[11]; 1.0 kg/ha,91
